Measured values: patent US7618787B2, “Method of screening compound capable of accelerating or inhibiting apoptosis, apoptosis accelarator and apoptosis inhibitor” (Hisamitsu Pharmaceutical Co., Inc., priority 2004, dated 2009)

Assays:
U2OS cells [1] = assay: Cell survival assay (MTT) of cisplatin-exposed cells; format: cell-based, human; details: cisplatin 20 μM, time course (FIG. 1)
Protocol: U2OS cells were seeded at a density of 5×10^3 cells/well to a 96-well tissue culture dish supplemented with 100 μL of complete medium, and then allowed to adhere thereto overnight. A cisplatin stock solution was filtered and sterilized with a filter of 0.45 μm in pore size and diluted with phosphate-buffered saline (PBS). Cisplatin was added at the final concentration of 20 μM to the cultures, followed by cell viability assay. The viability was assayed by a modified 3-(4,5-dimethylthiazol-2-yl)-2,5-diphenyl-tetrazolium bromide (MTT) assay at given time points after the cisplatin addition. The MTT assay was performed by adding 10 μL of MTT solution to each well and incubating the cultures at 37° C. for 1 hour. A microplate reader (Model 450; Bio-Rad) was used to measure the absorbance of each well at 570 nm.

U2OS cells [2] = assay: Immunoblot of nuclear and cytoplasmic fractions of U2OS cells treated with cisplatin; format: cell-based, human
Protocol: To prepare nuclear and cytoplasmic extracts, cells were washed with ice-cold PBS and suspended in lysis buffer (pH 7.5; which contained 10 mM Tris-Cl, 1 mM EDTA, 0.5% Nonidet P-40 (NP-40), 1 mM PMSF, and protease inhibitor mix (Sigma)). The suspended cells were incubated at 4° C. for 30 minutes and centrifuged at 5000 rpm for 10 minutes to collect soluble fractions (which were used as cytoplasmic extracts). Insoluble fractions were washed with lysis buffer and dissolved in 1×Laemmli SDS-sample buffer (pH 6.8; which contained 62.5 mM Tris-Cl, 2% SDS, 2% β-mercaptoethanol, and 0.01% bromophenol blue) to collect nuclear extracts. The nuclear and cytoplasmic fractions were subjected to immunoblot analysis using an anti-lamin B monoclonal (Ab-1; Oncogene Research Products) or anti-α-tubulin monoclonal (DM1A; Cell Signaling Technology) antibody. Nuclear and cytoplasmic extracts were prepared from cisplatin-exposed or untreated U2OS cells and subjected to immunoblot with a given antibody. The purity of the nuclear and cytoplasmic fractions was confirmed by immunoblot using anti-lamin B and anti-α-tubulin antibodies, respectively. In agreement with the previously reported results, IKK-α was localized in both the nucleus and the cytoplasm, whereas IKK-β was largely expressed in the cytoplasm (FIG. 4). The amounts of IKK-α, IKK-β, and IKK-γ in the cytoplasm were not changed regardless of cisplatin treatment.

NF-κB [3] = assay: NF-κB reporter luciferase assay in U2OS cells; format: cell-based, human; details: U2OS cells transfected with NF-κB reporter plasmid (FIG. 7)
Protocol: (§1) As described above, the amount of nuclear transactivating p65 subunit was not changed in U2OS cells treated with cisplatin. […] U2OS cells transfected with a NF-κB reporter plasmid were treated with cisplatin and assayed for their luciferase activities. […] L929 cells have been used widely for examining the TNF-α-dependent activation of NF-κB.

U2OS cells [4] = assay: RT-PCR analysis of RNA from U2OS cells treated with cisplatin; format: cell-based, human
Protocol: Total RNA was extracted from U2OS cells exposed to cisplatin (final concentration: 20 μM) by use of RNeasy Mini Kit (Qiagen) according to the manufacturer's protocol. Reverse transcription reaction was performed by mixing the total RNA (5 μg) with SuperScript II reverse transcriptase (Invitrogen) and random primers and incubating the mixture at 42° C. for 1 hour. After the completion of the reaction, cDNA was diluted with water and amplified with 15 μL of reaction solution (which contained 100 μM of each deoxynucleoside triphosphate, 1×PCR buffer, 1 μM of each primer, and 0.2 units of rTaq DNA polymerase (Takara Bio)). GAPDH expression was assayed and used as an internal standard. The PCR amplification products were separated by electrophoresis with 1.5% agarose gel in TAE buffer (40 mM Tris-Cl, 1 mM EDTA) and visualized with ethidium bromide (post-staining).

U2OS cells [5] = assay: Immunoblot of cell lysates of U2OS cells treated with cisplatin; format: cell-based, human
Protocol: Cells were transiently transfected with a total of 2 μg of expression plasmids. After 48 hours of the transfection, the cells were washed with ice-cold PBS and suspended in lysis buffer (pH 8.0; which contained 25 mM Tris-Cl, 137 mM sodium chloride, 1% Triton X-100, 1 mM phenylmethylsulfonyl fluoride (PMSF), and protease inhibitor mix (Roche Molecular Biochemicals)), followed by brief sonication. After centrifugation at 15000 rpm for 10 minutes, the supernatant was collected and assayed for protein concentrations by the Bradford assay (Bio-Rad). Equal amounts of lysates (protein amount: 50 μg) from the whole cells were denatured by boiling in Laemmli SDS-sample buffer, then separated on 10% SDS-polyacrylamide gel (SDS-PAGE), and transferred at room temperature for 1 hour to polyvinylidene difluoride (PVDF) membranes (Immobilon-P; Millipore) in Tris-glycine buffer containing 10% methanol. The membranes were blocked at room temperature for 1 hour with Tris-buffered saline (TBS-T) containing 5% skim milk and 0.1% Tween 20. Then, the membranes were reacted with an anti-FLAG monoclonal (M2; Sigma), anti-HA monoclonal (12CA5; Roche Molecular Biochemicals), anti-p73 monoclonal (Ab-4; NeoMarkers), anti-p53 monoclonal (DO-1; Oncogene Research Products), anti-Bax monoclonal (6A7; eBioscience), anti-IKK-α polyclonal (M-280; Santa Cruz Biotechnology), anti-IKK-β polyclonal (H-470; Santa Cruz Biotechnology), anti-IKK-γ polyclonal (FL-417; Santa Cruz Biotechnology), anti-p65 polyclonal (C-20; Santa Cruz Biotechnology), anti-IκB-α polyclonal (C-21; Santa Cruz Biotechnology), anti-actin polyclonal (20-33, Sigma), or anti p21^WAF1 polyclonal (H-164; Santa Cruz Biotechnology) antibody used as a primary antibody. After the reaction with the primary antibody, the membranes were reacted at room temperature for 1 hour with a horseradish peroxidase (HRP)-labeled goat anti-mouse or anti-rabbit secondary antibody (Cell Signaling Technologies) diluted 2000-fold in TBS-T. Immunoreactive proteins were finally visualized by use of an enhanced chemiluminescence system (ECL; Amersham Pharmacia Biotech) according to the manufacturer's instruction.

L929 cells = assay: Immunoblot of nuclear and cytoplasmic fractions of L929 cells; format: cell-based, mouse; details: L929 cells (FIG. 9)
Protocol: To prepare nuclear and cytoplasmic extracts, cells were washed with ice-cold PBS and suspended in lysis buffer (pH 7.5; which contained 10 mM Tris-Cl, 1 mM EDTA, 0.5% Nonidet P-40 (NP-40), 1 mM PMSF, and protease inhibitor mix (Sigma)). The suspended cells were incubated at 4° C. for 30 minutes and centrifuged at 5000 rpm for 10 minutes to collect soluble fractions (which were used as cytoplasmic extracts). Insoluble fractions were washed with lysis buffer and dissolved in 1×Laemmli SDS-sample buffer (pH 6.8; which contained 62.5 mM Tris-Cl, 2% SDS, 2% β-mercaptoethanol, and 0.01% bromophenol blue) to collect nuclear extracts. The nuclear and cytoplasmic fractions were subjected to immunoblot analysis using an anti-lamin B monoclonal (Ab-1; Oncogene Research Products) or anti-α-tubulin monoclonal (DM1A; Cell Signaling Technology) antibody.
as §1

NF-κB [6] = assay: NF-κB reporter activation in L929 cells; format: cell-based, mouse; details: L929 cells (FIG. 8)
Protocol: as §1

Row | Molecule | cell viability / apoptosis of U2OS cells (U2OS cells [1]) | cytoplasmic IκB-α (U2OS cells [2]; U2OS cytoplasmic fraction (FIG. 4)) | nuclear accumulation of IKK-α (U2OS cells [2]; U2OS nuclear fraction (FIG. 4)) | nuclear accumulation of p65-NF-κB subunit (RelA) (U2OS cells [2]; U2OS nuclear fraction (FIG. 4)) | NF-κB-dependent transcriptional activation (NF-κB [3]) | expression of IKK-α and IKK-β mRNAs (U2OS cells [4]; cisplatin 20 μM (FIG. 3)) | expression of p53 and p73α mRNAs (U2OS cells [4]; cisplatin 20 μM (FIG. 3)) | expression level of IKK-γ mRNA (U2OS cells [4]; cisplatin 20 μM, time-dependent (FIG. 3)) | IKK-α protein level (U2OS cells [5]; 12 to 36 hours after cisplatin exposure (FIG. 2)) | IKK-γ (NEMO) protein level (U2OS cells [5]; after 12 hours of cisplatin treatment) | p53 and p73α protein levels (U2OS cells [5]; cisplatin exposure (FIG. 2)) | amount of IKK-β (U2OS cells [5]; cisplatin treatment) | phosphorylated form of IκB-α (U2OS cells [5]; cisplatin treatment) | nuclear accumulation of p65 (L929 cells) | NF-κB-dependent transcriptional activation (NF-κB [6])
1 | N.N.[Cl][Pt][Cl] [cisplatin] | underwent apoptosis in a time-dependent manner | decreased in a time-dependent manner | remarkably accumulated IKK-α in the nucleus in a time-dependent manner | almost no effect on the nuclear accumulation of p65-NF-κB subunit | did not enhance NF-κB-dependent transcriptional activation | not changed | not induced | remarkable increase | remarkably accumulated IKK-α | transiently increased | remarkably induced at protein levels | hardly changed the amount of IKK-β | remarkably increased the phosphorylated form of IκB-α | – | –
2 | TNF-α | – | – | – | – | – | – | – | – | – | – | – | – | – | remarkably accumulated p65 in the nucleus | NF-κB-dependent transcriptional activation was observed after 2 hours
